# Measurements from ChEMBL document CHEMBL1152405, “Bis-anthracenyl isoxazolyl amides have enhanced anticancer activity” (Bioorg Med Chem Lett, 2009).
# Assays:
# Type in all cases: functional
# [1] = system: UO-31; assay: Growth inhibition of human UO31 cells at 10 uM after 24 hrs by MTT assay relative to control; design: scale not given: the % may be the effect or the level left
# [2] = system: T47D; assay: Growth inhibition of human T47D cells after 24 hrs by MTT assay
# [3] = system: BT-549; assay: Growth inhibition of human BT549 cells after 24 hrs by MTT assay; conditions: BT-549, 24 h
# [4] = system: NCI-H522; assay: Growth inhibition of human NCI-H522 cells at 10 uM after 24 hrs by MTT assay relative to control; design: scale not given: the % may be the effect or the level left
# [5] = system: HOP-62; assay: Growth inhibition of human HOP62 cells after 24 hrs by MTT assay; conditions: HOP-62, 24 h
# [6] = system: SK-MEL-28; assay: Growth inhibition of human SK-MEL-28 cells at 10 uM after 24 hrs by MTT assay relative to control; design: scale not given: the % may be the effect or the level left
# [7] = system: SNB-19; assay: Growth inhibition of human SNB19 cells after 24 hrs by MTT assay; conditions: SNB-19, 24 h
# [8] = system: SK-OV-3; assay: Growth inhibition of human SKOV3 cells after 24 hrs by MTT assay; conditions: SK-OV-3, 24 h
# [9] = system: UACC-257; assay: Growth inhibition of human UACC257 cells after 24 hrs by MTT assay; conditions: UACC-257, 24 h
# [10] = system: EKVX; assay: Growth inhibition of human EKVX cells after 24 hrs by MTT assay
# [11] = system: MDA-MB-435; assay: Growth inhibition of human MDA-MB-435 cells after 24 hrs by MTT assay; conditions: MDA-MB-435, 24 h
# [12] = system: ACHN; assay: Growth inhibition of human ACHN cells after 24 hrs by MTT assay
# [13] = system: HL-60(TB); assay: Growth inhibition of human HL-60(TB) cells after 24 hrs by MTT assay; conditions: HL-60, 24 h
# [14] = system: 786-0; assay: Growth inhibition of human 786-0 cells at 10 uM after 24 hrs by MTT assay relative to control; design: scale not given: the % may be the effect or the level left
# [15] = system: HOP-92; assay: Growth inhibition of human HOP92 cells at 10 uM after 24 hrs by MTT assay relative to control; design: scale not given: the % may be the effect or the level left
# [16] = Growth inhibition of human […] cells at 10 uM after 24 hrs by MTT assay relative to control; design: scale not given: the % may be the effect or the level left
# [17] = system: OVCAR-4; assay: Growth inhibition of human OVCAR4 cells at 10 uM after 24 hrs by MTT assay relative to control; design: scale not given: the % may be the effect or the level left
# [18] = system: COLO 205; assay: Growth inhibition of human COLO205 cells after 24 hrs by MTT assay; conditions: COLO 205, 24 h
# [19] = system: SNB-19; assay: Growth inhibition of human SNB19 cells at 10 uM after 24 hrs by MTT assay relative to control; design: scale not given: the % may be the effect or the level left
# [20] = system: SR; assay: Growth inhibition of human SR cells after 24 hrs by MTT assay
# [21] = system: M14; assay: Growth inhibition of human M14 cells at 10 uM after 24 hrs by MTT assay relative to control; design: scale not given: the % may be the effect or the level left
# [22] = system: MDA-MB-468; assay: Growth inhibition of human MDA-MB-468 cells after 24 hrs by MTT assay; conditions: MDA-MB-468, 24 h
# [23] = system: HCC 2998; assay: Growth inhibition of human HCC2998 cells at 10 uM after 24 hrs by MTT assay relative to control; design: scale not given: the % may be the effect or the level left
# [24] = system: OVCAR-8; assay: Growth inhibition of human OVCAR8 cells after 24 hrs by MTT assay; conditions: OVCAR-8, 24 h
# [25] = system: SN12C; assay: Growth inhibition of human SN12C cells after 24 hrs by MTT assay
# [26] = system: RXF 393; assay: Growth inhibition of human RXF393 cells at 10 uM after 24 hrs by MTT assay relative to control; design: scale not given: the % may be the effect or the level left
# [27] = system: NCI-H322M; assay: Growth inhibition of human NCI-H322M cells after 24 hrs by MTT assay
# [28] = system: K562; assay: Growth inhibition of human K562 cells at 10 uM after 24 hrs by MTT assay relative to control; design: scale not given: the % may be the effect or the level left
# [29] = system: MOLT-4; assay: Growth inhibition of human MOLT4 cells after 24 hrs by MTT assay; conditions: MOLT-4, 24 h
# [30] = system: Malme-3M; assay: Growth inhibition of human MALME-3M cells at 10 uM after 24 hrs by MTT assay relative to control; design: scale not given: the % may be the effect or the level left
# [31] = system: M14; assay: Growth inhibition of human M14 cells after 24 hrs by MTT assay; conditions: M14, 24 h
# [32] = system: PC-3; assay: Growth inhibition of human PC3 cells at 10 uM after 24 hrs by MTT assay relative to control; design: scale not given: the % may be the effect or the level left
# [33] = system: SW-620; assay: Growth inhibition of human SW620 cells at 10 uM after 24 hrs by MTT assay relative to control; design: scale not given: the % may be the effect or the level left
# [34] = system: A549; assay: Growth inhibition of human A549 cells at 10 uM after 24 hrs by MTT assay relative to control; design: scale not given: the % may be the effect or the level left
# [35] = read-out: LC50 (the source's name)
# [36] = read-out: pLC50 (the source's name) (converted)
smiles,measurement,setting,value
Cc1onc(-c2c3ccccc3c(Cl)c3ccccc23)c1C(=O)Nc1cc(C(=O)NCCCN(C)CCCNC(=O)c2cc(NC(=O)c3c(-c4c5ccccc5c(Cl)c5ccccc45)noc3C)cn2C)n(C)c1,Activity,[1],-80.7%
same,TGI,[2],5080 nM
same,GI50,[2]; read-out: GI50,1690 nM
same,CC50,[2]; [35],24500 nM
same,GI50,[2]; read-out: pGI50 (converted),1700 nM
same,CC50,[2]; [36],24500 nM
same,TGI,[3],10200 nM
same,GI50,[3]; read-out: GI50,2920 nM
same,CC50,[3]; [35],100000 nM
same,GI50,[3]; read-out: pGI50 (converted),2950 nM
same,CC50,[3]; [36],> 100000 nM
same,Activity,[4],-85.33%
same,TGI,[5],2650 nM
same,GI50,[5]; read-out: GI50,1360 nM
same,CC50,[5]; [35],5140 nM
same,GI50,[5]; read-out: pGI50 (converted),1350 nM
same,CC50,[5]; [36],5130 nM
same,Activity,[6],-100%
same,TGI,[7],3500 nM
same,GI50,[7]; read-out: GI50,1560 nM
same,CC50,[7]; [35],7860 nM
same,GI50,[7]; read-out: pGI50 (converted),1550 nM
same,CC50,[7]; [36],7940 nM
same,TGI,[8],2870 nM
same,GI50,[8]; read-out: GI50,1540 nM
same,CC50,[8]; [35],5360 nM
same,GI50,[8]; read-out: pGI50 (converted),1550 nM
same,CC50,[8]; [36],5370 nM
same,TGI,[9],4630 nM
same,GI50,[9]; read-out: GI50,2150 nM
same,GI50,[9]; read-out: pGI50 (converted),2140 nM
same,TGI,[10],5270 nM
same,GI50,[10]; read-out: GI50,1910 nM
same,CC50,[10]; [35],100000 nM
same,GI50,[10]; read-out: pGI50 (converted),1910 nM
same,CC50,[10]; [36],> 100000 nM
same,TGI,[11],3400 nM
same,GI50,[11]; read-out: GI50,1900 nM
same,GI50,[11]; read-out: pGI50 (converted),1910 nM
same,TGI,[12],3040 nM
same,GI50,[12]; read-out: GI50,1630 nM
same,GI50,[12]; read-out: pGI50 (converted),1620 nM
same,TGI,[13],8300 nM
same,GI50,[13]; read-out: GI50,1610 nM
same,CC50,[13]; [35],42000 nM
same,GI50,[13]; read-out: pGI50 (converted),1620 nM
same,CC50,[13]; [36],41700 nM
same,Activity,[14],-81.64%
same,Activity,[15],-16.66%
same,Activity,[16],-100%
same,Activity,[17],-100%
same,TGI,[18],2480 nM
same,GI50,[18]; read-out: GI50,1240 nM
same,CC50,[18]; [35],4980 nM
same,GI50,[18]; read-out: pGI50 (converted),1230 nM
same,CC50,[18]; [36],5010 nM
same,Activity,[19],-100%
same,LC50,[20],100000 nM
same,TGI,[20],2030 nM
same,GI50,[20]; read-out: GI50,394 nM
same,GI50,[20]; read-out: pGI50 (converted),398 nM
same,CC50,[20]; [36],> 100000 nM
same,Activity,[21],-92.68%
same,TGI,[22],2780 nM
same,GI50,[22]; read-out: GI50,1330 nM
same,CC50,[22]; [35],5810 nM
same,GI50,[22]; read-out: pGI50 (converted),1320 nM
same,CC50,[22]; [36],5750 nM
same,Activity,[23],-91.29%
same,TGI,[24],4090 nM
same,GI50,[24]; read-out: GI50,1970 nM
same,GI50,[24]; read-out: pGI50 (converted),2000 nM
same,TGI,[25],3140 nM
same,GI50,[25]; read-out: GI50,1650 nM
same,GI50,[25]; read-out: pGI50 (converted),1660 nM
same,Activity,[26],-61.83%
same,TGI,[27],4870 nM
same,GI50,[27]; read-out: GI50,2180 nM
same,CC50,[27]; [35],14600 nM
same,GI50,[27]; read-out: pGI50 (converted),2190 nM
same,CC50,[27]; [36],14500 nM
same,Activity,[28],-100%
same,TGI,[29],2430 nM
same,GI50,[29]; read-out: GI50,615 nM
same,CC50,[29]; [35],7960 nM
same,GI50,[29]; read-out: pGI50 (converted),617 nM
same,CC50,[29]; [36],7940 nM
same,Activity,[30],-86.28%
same,TGI,[31],2800 nM
same,GI50,[31]; read-out: GI50,1480 nM
same,CC50,[31]; [35],5290 nM
same,GI50,[31]; read-out: pGI50 (converted),1480 nM
same,CC50,[31]; [36],5250 nM
same,Activity,[32],-100%
same,Activity,[33],-100%
same,Activity,[34],-59.15%
